Source: PMC11747586, “Synthesis and Investigation of Peptide–Drug Conjugates Comprising Camptothecin and a Human Protein‐Derived Cell‐Penetrating Peptide” (Chemical Biology & Drug Design, 2025)
Positions of bridges follow the written chain, without caps; N, C: chain ends. Residues, ends and D or L forms follow the SMILES beside them.

Experiments:
cells = assay: cells
Protocol: (§1) Cell death was measured using resazurin, with 0.1% (v/v) Triton X‐100 as a control for 100% cell death. Data points are expressed as mean ± SD for at least two biological replicates. Dose response curves were fitted using [inhibitor] versus response with variable slope, Graphpad Prism v10. […] RBC lysis was determined by measuring released hemoglobin, with 0.1% (v/v) Triton X‐100 as a control for 100% cell lysis. Melittin was included as a membranolytic control. Data points are expressed as mean ± SD for two technical replicates. Dose response curves were fitted using [inhibitor] versus response with variable slope, Graphpad Prism v10. […] CC50 values are expressed as mean (SEM).
Cell death was measured using resazurin, with 0.1% (v/v) Triton X-100 as a control for 100% cell death. Data points are expressed as mean ± SD for at least two biological replicates. CC50 values are expressed as mean (SEM). Note: CPT-dipeptide-PDIP was not included in this study. c[A]PDIP is a desulfurized variant of cPDIP 2 (see Table S1) to prevent the presence of free thiol during assays. […]
HaCaT cells were grown in DMEM medium and HT144 cells were grown in RPMI medium supplemented with 2 mM L-glutamine and 10 mM sodium pyruvate. Media were supplemented with 10% (v/v) fetal bovine serum, 100 units/mL of penicillin and […] of streptomycin. Flasks of cultured cells were maintained in a humidified incubator (37 °C, 5% CO2) and passaged every 2–3 days to maintain cultures between 20–90% confluence. Cell line identity was verified by comparing […]
STR profiles of the cell lines against database entries from the DSMZ-German collection of microorganisms and cell cultures, GmBH https://celldive.dsmz.de/str/browse.
Toxicity to the HT144 and HaCaT cell lines was tested following peptide treatment by measuring the metabolism of resazurin into fluorescent resorufin. The assays were performed with 5000 cells/well (96-well plate) in serum free media. Cells were incubated with serially diluted peptides, PDCs or […]

human RBCs = assay: Red blood cell (RBC) lysis, released hemoglobin; details: red cells of human, 72 h
Protocol: as §1, with “(SEM). […]” for “(SEM).”
Red blood cell (RBC) lysis
Human RBCs and serum were obtained from healthy volunteers via the Red Cross Lifeblood,
Brisbane, Australia. RBCs were washed three times with PBS and stored in culture medium (RPMI

[1] = Parallel artificial membrane permeability assay (PAMPA); format: in vitro ADME; details: PAMPA
Protocol: FIGURE 4 (A) Membrane permeability and cellular uptake of PDCs, scaffold peptides, and CPT. Compounds were added to PAMPA wells (4 μM) and incubated for 4 h. Supernatant from apical and basolateral sides of the membrane were collected and analyzed using LC–MS. The amount in the combined soluble fractions was compared to the starting amount to determine % recovery, and the apparent permeability (Papp) was calculated as before (Sevin et al. [2013]). Data is expressed as mean ± SD from a single experiment with three technical replicates. (B) Internalization/cell membrane association of PDCs 12–14 and PDIP with HT144 cells. Cells were treated with PDIP or PDCs (4 μM) for 1 h, washed to remove extracellular compound, then extracted with 75% (v/v) MeCN in mQH2O (containing 1.75% (v/v) TFA), to recover soluble peptide or PDC from precipitated cell proteins. The relative amount of internalized peptide or PDC was determined by integrating area under the curve (AUC) for the [M + 6H]^6+ m/z peak (for the intact mass) using time of flight–mass spectrometry (see Figure S2). […] Data is expressed as mean ± SD from a single experiment with three technical replicates for each treatment and control and was analyzed with ANOVA (Tukey multiple comparisons; **p < 0.01, *p < 0.05). (C) Detection of intracellular CPT following 6 h treatment of HT144 cells with CPT and PDCs 12 and 14. […] Data is expressed as mean ± SD from a single experiment with three technical replicates for each treatment and was analyzed with ANOVA (Fisher multiple paired comparisons; **p < 0.01, *p < 0.05). TEXT PRINTED IN THE PICTURE: (A) PDIP: % recovered (soluble fractions): 94 | (A) 12: % recovered (soluble fractions): 58 | (A) 14: % recovered (soluble fractions): 33 | (A) 15: % recovered (soluble fractions): 40 | (A) c[A] PDIP: % recovered (soluble fractions): 34 | (A) CPT: % recovered (soluble fractions): 92 […]
For the first assay, the PDCs (12–15), scaffold peptides and CPT (4 μM) were added to the apical side of PAMPA monolayers and incubated for 4 h. […] PDIP, CPT, and PDCs 12 and 14 had high permeability (Papp ≥ 2 × 10^−6 cm/s), highlighting that these PDCs maintain membrane permeability with the CPT cargo attached. […] Reliable permeability data were not obtained for PDC 13 because of poor recovery of the PDC from soluble fractions, and degradation during the 4 h PAMPA experiment. […] Instability of the carbonate linkage within CPT conjugates containing a dipeptide linker has been previously reported (Walker et al. [2002]), highlighting the potential incompatibility of this drug–linker combination for CPT PDCs. Considering the observed degradation of 13 in the cell‐free assay, it is also possible that extracellular degradation occurred during the cytotoxicity assays.
Parallel artificial membrane permeability assay (PAMPA)
PAMPA was performed according to the manufacturer instructions for the BD Gentest pre-coated PAMPA plate system (BD Biosciences), as previously described.16 Briefly, peptides and PDCs (4 μM in PBS) were added to the apical side of PAMPA wells and incubated for 4 h at 37 °C, 5% CO2 with 95% humidity. Soluble fractions were recovered from the apical and basolateral sides, and compound concentration was quantified using a Shimadzu LCMS-2020 instrument with a Phenomenex 5 µm C18 / 300 Å / 150 x 2 mm LC column. Data was collected from three technical replicates for each compound. The % recovery was determined from (combined from apical and basolateral fractions) relative to the starting concentration:
Recovery rate : R (%) = (C஺ ×V஺ +C஻ ×V஻ )× 100 where CA and CB are the apical and basolateral concentrations (µM), VA and VB are the apical and basolateral volumes (mL), and C0 is the initial concentration (µM).
The apparent permeability coefficient (Papp) was calculated using the following equations17 and where A is the membrane surface area (cm2): […]

In the case of CC[C@H](C)[C@@H]1NC(=O)[C@H](CCCCN)NC(=O)[C@H](CCCCN)NC(=O)[C@H](Cc2ccc(O)cc2)NC(=O)[C@H](CC(C)C)NC(=O)[C@@H]2CCCN2C(=O)CNC(=O)CNC(=O)[C@@H](NC(=O)CN)CSSC[C@@H](C(=O)N[C@@H](CCC(=O)O)C(=O)N[C@@H](CO)C(N)=O)NC(=O)[C@H](CC(C)C)NC(=O)[C@H](CCCCN)NC(=O)[C@H](CCCCN)NC(=O)[C@H]([C@@H](C)CC)NC(=O)[C@H]([C@@H](C)CC)NC(=O)[C@H](CCCCN)NC(=O)[C@H](CCCCN)NC(=O)[C@H](Cc2ccc(O)cc2)NC(=O)[C@H](CC(C)C)NC(=O)[C@@H]2CCCN2C(=O)[C@H](C)NC(=O)CNC(=O)CNC(=O)[C@H](CO)NC(=O)CNC(=O)CNC(=O)[C@H](CO)NC(=O)[C@H](CCC(=O)O)NC(=O)[C@H](CC(C)C)NC(=O)[C@H](CC(C)C)NC(=O)[C@H](CCCCN)NC(=O)[C@H](CCCCN)NC(=O)[C@H]([C@@H](C)CC)NC1=O [PDIP, reference compound] (H-GCGGPLYKKIIKKLLESGGSGGAPLYKKIIKKLCES-NH2; disulfide 2-34; N-terminus assumed), the CC50 (cells) is reported as 4.83 µM, the “HC10 (minimal hemolytic concentration) RBC” value (human RBCs) is reported as ~ 32 μM and the Papp at 4 h, 4 μM [1] is reported as no less than 2 ×10⁻⁶ cm/s.
